Source: patent US20190209650A1, “METHOD TO IMPROVE THE EFFECTIVENESS OF ANTI-CANCER THERAPIES BY EXPOSING CANCER CELLS TO AN INFLAMMATORY STIMULUS PRIOR TO TREATMENT” (priority 2016, published 2019)

Test system: SW620 colorectal cancer cell line
Test: Flow cytometry of EpCAM positive cells and cancer stem cell (CD44+CD133-) subpopulation after incubation with cytokines
Type: cell-based, human
Details: for % Gated, R4 (CD44FITC, CD133 PE) / % Total, R4 (CD44FITC, CD133 PE): population R4 & R14 & R2 & R1; for % Gated, R5 (CD44FITC, CD133 PE) / % Total, R5 (CD44FITC, CD133 PE): population R5 & R14 & R2 & R1; for % Gated, R6 (CD44FITC, CD133 PE) / % Total, R6 (CD44FITC, CD133 PE): population R6 & R14 & R2 & R1; for % Gated, R7 Cancer Stem Cell (CSC) (CD44+CD133-) / % Total, R7 Cancer Stem Cell (CSC) (CD44+CD133-): population R7 & R14 & R2 & R1; for % Gated, R8 (CD44FITC, EpCAMefluor710) / % Total, R8 (CD44FITC, EpCAMefluor710): population R8 & R14 & R2 & R1; for % Gated, R9 EpCAM positive Cells (CD44FITC, EpCAMefluor710) / % Total, R9 EpCAM positive Cells (CD44FITC, EpCAMefluor710): population R9 & R14 & R2 & R1; for % Gated, R10 EpCAM positive Cells (CD44FITC, EpCAMefluor710) / % Total, R10 EpCAM positive Cells (CD44FITC, EpCAMefluor710): population R10 & R14 & R2 & R1; for % Gated, R11 (CD44FITC, EpCAMefluor710) / % Total, R11 (CD44FITC, EpCAMefluor710): population R11 & R14 & R2 & R1
Experimental: This number returned to near baseline 21% at 48 hours. […] This change was transient, occurring within 24 hours and rapidly returning to baseline.
The data from the scatter plots of FIGS. 1A-1H, 2A-2H, and 3A-3H are reproduced below in Tables 1-3.
Based on the above data of potentiating the effectiveness of chemotherapy by exposing cancer cells to specific cytokines such as HGF and or Il-6 within a time limited fashion, the mechanism behind this ability to sensitize cancer cells may not simply be triggering cellular proliferation. Specific cytokine exposures can transiently cause a cancer cell population to differentiate away from a more stem cell enriched, mesenchymal phenotype towards a more differentiated, epithelial cell population more sensitive to the effects of anti-cancer therapies (see Tables 1-3).
In particular, exposure to a control population of SW620 colorectal cancer cell line to HGF at a concentration of 10 ng per ml for 24 hours caused the control putative stem cell population (CD44+/CD133−) to drop from 33% at baseline (see Table 1, R7 region, CD 44 positive/CD133 negative) to 1% (see Table 2, R7, region CD 44 positive/CD133 negative). This drop was transient, as exposure to the same cell line for 48 hours of HGF at 10 ng per ml transitioned the phenotypic distribution back towards a stem cell enriched phenotype with 23% putative stem cells (see Table 3, R7 region, CD 44 positive/CD133 negative).

## IL8: cytokine treatment IL8 in Tables 1-3
0 hour incubation
  % Gated, R4 (CD44FITC, CD133 PE): 48.9%
  % Total, R4 (CD44FITC, CD133 PE): 40.9%
  % Gated, R5 (CD44FITC, CD133 PE): 3.58%
  % Total, R5 (CD44FITC, CD133 PE): 2.99%
  % Gated, R6 (CD44FITC, CD133 PE): 14.3%
  % Total, R6 (CD44FITC, CD133 PE): 12%
  % Gated, R7 Cancer Stem Cell (CSC) (CD44+CD133-): 33.5%
  % Total, R7 Cancer Stem Cell (CSC) (CD44+CD133-): 28%
  % Gated, R8 (CD44FITC, EpCAMefluor710): 3.84%
  % Total, R8 (CD44FITC, EpCAMefluor710): 3.21%
  % Gated, R9 EpCAM positive Cells (CD44FITC, EpCAMefluor710): 55%
  % Total, R9 EpCAM positive Cells (CD44FITC, EpCAMefluor710): 46%
  % Gated, R10 EpCAM positive Cells (CD44FITC, EpCAMefluor710): 38.9%
  % Total, R10 EpCAM positive Cells (CD44FITC, EpCAMefluor710): 32.6%
  % Gated, R11 (CD44FITC, EpCAMefluor710): 1.92%
  % Total, R11 (CD44FITC, EpCAMefluor710): 1.6%
24 h incubation
  % Gated, R4 (CD44FITC, CD133 PE): 36.8%
  % Total, R4 (CD44FITC, CD133 PE): 30%
  % Gated, R5 (CD44FITC, CD133 PE): 7.29%
  % Total, R5 (CD44FITC, CD133 PE): 5.93%
  % Gated, R6 (CD44FITC, CD133 PE): 30.9%
  % Total, R6 (CD44FITC, CD133 PE): 25.2%
  % Gated, R7 Cancer Stem Cell (CSC) (CD44+CD133-): 24.5%
  % Total, R7 Cancer Stem Cell (CSC) (CD44+CD133-): 19.9%
  % Gated, R8 (CD44FITC, EpCAMefluor710): 1.98%
  % Total, R8 (CD44FITC, EpCAMefluor710): 1.61%
  % Gated, R9 EpCAM positive Cells (CD44FITC, EpCAMefluor710): 48.4%
  % Total, R9 EpCAM positive Cells (CD44FITC, EpCAMefluor710): 39.4%
  % Gated, R10 EpCAM positive Cells (CD44FITC, EpCAMefluor710): 50.1%
  % Total, R10 EpCAM positive Cells (CD44FITC, EpCAMefluor710): 40.6%
  % Gated, R11 (CD44FITC, EpCAMefluor710): 0.34%
  % Total, R11 (CD44FITC, EpCAMefluor710): 0.27%
48 h incubation
  % Gated, R4 (CD44FITC, CD133 PE): 38.5%
  % Total, R4 (CD44FITC, CD133 PE): 35.8%
  % Gated, R5 (CD44FITC, CD133 PE): 6.8%
  % Total, R5 (CD44FITC, CD133 PE): 6.32%
  % Gated, R6 (CD44FITC, CD133 PE): 28.5%
  % Total, R6 (CD44FITC, CD133 PE): 26.5%
  % Gated, R7 Cancer Stem Cell (CSC) (CD44+CD133-): 26.8%
  % Total, R7 Cancer Stem Cell (CSC) (CD44+CD133-): 24.9%
  % Gated, R8 (CD44FITC, EpCAMefluor710): 23.1%
  % Total, R8 (CD44FITC, EpCAMefluor710): 21.5%
  % Gated, R9 EpCAM positive Cells (CD44FITC, EpCAMefluor710): 31%
  % Total, R9 EpCAM positive Cells (CD44FITC, EpCAMefluor710): 28.8%
  % Gated, R10 EpCAM positive Cells (CD44FITC, EpCAMefluor710): 25.4%
  % Total, R10 EpCAM positive Cells (CD44FITC, EpCAMefluor710): 23.6%
  % Gated, R11 (CD44FITC, EpCAMefluor710): 21.4%
  % Total, R11 (CD44FITC, EpCAMefluor710): 19.9%

## PDGF Beta: Platelet derived growth factor BB
0 hour incubation
  % Gated, R4 (CD44FITC, CD133 PE): 49.7%
  % Total, R4 (CD44FITC, CD133 PE): 46.5%
  % Gated, R5 (CD44FITC, CD133 PE): 2.45%
  % Total, R5 (CD44FITC, CD133 PE): 2.29%
  % Gated, R6 (CD44FITC, CD133 PE): 10.7%
  % Total, R6 (CD44FITC, CD133 PE): 9.97%
  % Gated, R7 Cancer Stem Cell (CSC) (CD44+CD133-): 37.3%
  % Total, R7 Cancer Stem Cell (CSC) (CD44+CD133-): 34.9%
  % Gated, R8 (CD44FITC, EpCAMefluor710): 4.94%
  % Total, R8 (CD44FITC, EpCAMefluor710): 4.62%
  % Gated, R9 EpCAM positive Cells (CD44FITC, EpCAMefluor710): 53.5%
  % Total, R9 EpCAM positive Cells (CD44FITC, EpCAMefluor710): 50%
  % Gated, R10 EpCAM positive Cells (CD44FITC, EpCAMefluor710): 38.8%
  % Total, R10 EpCAM positive Cells (CD44FITC, EpCAMefluor710): 36.3%
  % Gated, R11 (CD44FITC, EpCAMefluor710): 2.33%
  % Total, R11 (CD44FITC, EpCAMefluor710): 2.18%
24 h incubation
  % Gated, R4 (CD44FITC, CD133 PE): 36.2%
  % Total, R4 (CD44FITC, CD133 PE): 32.4%
  % Gated, R5 (CD44FITC, CD133 PE): 8.6%
  % Total, R5 (CD44FITC, CD133 PE): 7.7%
  % Gated, R6 (CD44FITC, CD133 PE): 32.2%
  % Total, R6 (CD44FITC, CD133 PE): 28.8%
  % Gated, R7 Cancer Stem Cell (CSC) (CD44+CD133-): 22.6%
  % Total, R7 Cancer Stem Cell (CSC) (CD44+CD133-): 20.3%
  % Gated, R8 (CD44FITC, EpCAMefluor710): 4.94%
  % Total, R8 (CD44FITC, EpCAMefluor710): 4.42%
  % Gated, R9 EpCAM positive Cells (CD44FITC, EpCAMefluor710): 45.3%
  % Total, R9 EpCAM positive Cells (CD44FITC, EpCAMefluor710): 40.6%
  % Gated, R10 EpCAM positive Cells (CD44FITC, EpCAMefluor710): 47.4%
  % Total, R10 EpCAM positive Cells (CD44FITC, EpCAMefluor710): 42.5%
  % Gated, R11 (CD44FITC, EpCAMefluor710): 3.22%
  % Total, R11 (CD44FITC, EpCAMefluor710): 2.88%
48 h incubation
  % Gated, R4 (CD44FITC, CD133 PE): 40.1%
  % Total, R4 (CD44FITC, CD133 PE): 27.6%
  % Gated, R5 (CD44FITC, CD133 PE): 7.5%
  % Total, R5 (CD44FITC, CD133 PE): 5.16%
  % Gated, R6 (CD44FITC, CD133 PE): 27.4%
  % Total, R6 (CD44FITC, CD133 PE): 18.9%
  % Gated, R7 Cancer Stem Cell (CSC) (CD44+CD133-): 25.6%
  % Total, R7 Cancer Stem Cell (CSC) (CD44+CD133-): 17.6%
  % Gated, R8 (CD44FITC, EpCAMefluor710): 24.4%
  % Total, R8 (CD44FITC, EpCAMefluor710): 16.8%
  % Gated, R9 EpCAM positive Cells (CD44FITC, EpCAMefluor710): 31.8%
  % Total, R9 EpCAM positive Cells (CD44FITC, EpCAMefluor710): 21.9%
  % Gated, R10 EpCAM positive Cells (CD44FITC, EpCAMefluor710): 23.5%
  % Total, R10 EpCAM positive Cells (CD44FITC, EpCAMefluor710): 16.2%
  % Gated, R11 (CD44FITC, EpCAMefluor710): 21.1%
  % Total, R11 (CD44FITC, EpCAMefluor710): 14.5%
